# Assay results reported in patent US11130733B2, “4-OXO-alkylated tetramic acid compound, preparation method and use thereof” (BEIJING JOEKAI BIOTECH. LLC, priority 2017, dated 2021).
# Values joined by “and” are separate entries in the source; they are usually repeats but may differ in a detail not shown here. Equal entries are not always repeated. Where two headings read alike, the source gives them in different places.
# Test: Pharmacokinetic evaluation, plasma and brain concentrations
# Assay type: in vivo, ICR mice
# Details: for concentration at 0.083 h / concentration at 0.25 h / concentration at 0.5 h / concentration at 1 h / concentration at 2 h / concentration at 4 h / concentration at 6 h / concentration at 8 h: male, ICR, mouse
# Text: Distribution of a medicament in the body is one of the important indicators to determine the dose and efficacy of the medicament. Thus, excellent candidate compounds should have good pharmacokinetic characteristics. In addition, since the compound of the present invention is intended to be used for the treatment of Alzheimer's disease, which is a disease of the central nervous system, the distribution pattern of the compound in the brain and the blood is also one of the subjects to be investigated. In this experiment, compound 50561 was administered to mice […] or by gavage, and the concentrations of the compound in blood and brain were measured at specific time points to determine the pharmacokinetic parameters.
# Forty-eight male ICR mice purchased from Shanghai Sippr-BK Lab. Animal Co. Ltd were used in this experiment. The oral group was fasted for 10-14 hours before administration, and feeding was restored 4 hours after administration. Samples were collected from the intravenous administration group 0.083 h, 0.25 h, 0.5 h, 1 h, 2 h, 4 h, 8 h, and 24 h after administration, respectively: while for the oral administration group, about 0.5 mL of blood was collected from the heart 0.25 h, 0.5 h, 1 h, 2 h, 4 h, 6 h, 8 h, and 24 h after administration, respectively. Heparin sodium was used for anticoagulation. Blood samples were collected and placed on ice, and plasma was separated by centrifugation (centrifugation conditions: 8000 rpm, 6 minutes, 4C). The collected plasma was stored at −80° C. before analysis. After collecting plasma samples, brain tissues were collected, washed with normal saline, water-absorbed by filter paper, weighed immediately, and then placed in labeled tubes (one tube for one brain tissue). The samples to be tested were temporarily placed on ice before being stored in a −80° C. refrigerator.
# The analysis methods of biological samples and the analysis of all samples were done by Medicilon Pharmaceutical Technology (Shanghai) Co., Ltd. The intraday accuracy evaluation of the quality control samples was carried out while analyzing the samples, and the accuracy of over 66.7% of the quality control samples was required to be between 80-120%.
# When calculating the pharmacokinetic parameters, the BLQ before Cmax (including “No peak”) was calculated as 0; BLQ occurring after Cmax (including “No peak”) was not involved in the calculation. WinNonlin Professional V 5.2 (Pharsight, USA) was adopted to calculate the following pharmacokinetic parameters: AUC(0-t), AUC(0-∞), T1/2, MRT(0-∞), Cmax, and Tmax. The tissue/plasma ratio was to be calculated by the following formula based on the blood concentration data at different time points: Tissue/plasma ratio (mL/g)=tissue blood concentration/plasma blood concentration.
# [1] = brain, iv, 1 mg/kg, IV 1 mg/kg, read-out: Brain tissue concentration, Mean
# [2] = brain, iv, 1 mg/kg, IV 1 mg/kg, read-out: Brain tissue concentration, individual mice
# [3] = brain, po, 10 mg/kg, PO 10 mg/kg, read-out: Brain tissue concentration, Mean
# [4] = brain, po, 10 mg/kg, PO 10 mg/kg, read-out: Brain tissue concentration, individual mice
# [5] = plasma, iv, 1 mg/kg, IV 1 mg/kg, read-out: Blood concentration, Mean
# [6] = plasma, iv, 1 mg/kg, IV 1 mg/kg, read-out: Blood concentration, individual mice
# [7] = plasma, po, 10 mg/kg, PO 10 mg/kg, read-out: Blood concentration, Mean
# [8] = plasma, po, 10 mg/kg, PO 10 mg/kg, read-out: Blood concentration, individual mice
compound,measurement,setting,value
O=C1C=C(OCc2ccc(F)cc2)[C@H](Cc2ccccc2)N1 [Compound 50561],"Brain/plasma ratio, Mean","PO 10 mg/kg, 6 hr",2.511 mL/G
same,"Blood concentration, individual mice","PO 10 mg/kg, 6 hr, 10 mg/kg",6.30 ng/mL and 8.82 ng/mL
same,"Brain tissue concentration, individual mice","PO 10 mg/kg, 6 hr, 10 mg/kg",11.72 ng/G and 17.40 ng/G and 25.83 ng/G
same,"Brain/plasma ratio, individual mice","PO 10 mg/kg, 6 hr, 10 mg/kg",1.839 mL/G and 2.764 mL/G and 2.929 mL/G
same,"Brain/plasma ratio, Mean","PO 10 mg/kg, 8 hr",2.009 mL/G
same,"Blood concentration, individual mice","PO 10 mg/kg, 8 hr, 10 mg/kg",4.77 ng/mL and 3.88 ng/mL and 1.63 ng/mL
same,"Brain tissue concentration, individual mice","PO 10 mg/kg, 8 hr, 10 mg/kg",9.49 ng/G and BLQ
same,"Brain/plasma ratio, individual mice","PO 10 mg/kg, 8 hr, 10 mg/kg",1.575 mL/G and 2.443 mL/G
same,"Blood concentration, individual mice","PO 10 mg/kg, 24 hr",BLQ
same,"Brain tissue concentration, individual mice","PO 10 mg/kg, 24 hr",BLQ
same,content in brain tissue compared with blood,after intravenous injection and oral administration,higher than that in the blood
same,concentration at 0.083 h,[1],738 ng/g
same,concentration at 0.25 h,[1],454 ng/g
same,concentration at 0.25 h,[2],462 ng/g
same,concentration at 0.5 h,[1],204 ng/g
same,concentration at 0.5 h,[2],148 ng/g
same,concentration at 1 h,[1],43.1 ng/g
same,concentration at 1 h,[2],42.6 ng/g
same,concentration at 0.25 h,[3],1220 ng/g
same,concentration at 0.25 h,[4],1470 ng/g
same,concentration at 0.5 h,[3],1600 ng/g
same,concentration at 1 h,[3],1120 ng/g
same,concentration at 1 h,[4],906 ng/g
same,concentration at 2 h,[3],335 ng/g
same,concentration at 4 h,[3],41.7 ng/g
same,concentration at 6 h,"brain, po, 10 mg/kg, PO 10 mg/kg, 6 hr, read-out: Brain tissue concentration, Mean",18.3 ng/g
same,concentration at 8 h,"brain, po, 10 mg/kg, PO 10 mg/kg, 8 hr, read-out: Brain tissue concentration, Mean",8.5 ng/g
same,concentration at 8 h,"brain, po, 10 mg/kg, PO 10 mg/kg, 8 hr, read-out: Brain tissue concentration, individual mice",7.52 ng/g
same,concentration at 0.083 h,[5],302 ng/mL
same,concentration at 0.25 h,[5],195 ng/mL
same,concentration at 0.25 h,[6],188 ng/mL
same,concentration at 0.5 h,[5],82 ng/mL
same,concentration at 0.5 h,[6],58.1 ng/mL
same,concentration at 1 h,[5],15.3 ng/mL
same,concentration at 0.25 h,[7],653 ng/mL
same,concentration at 0.25 h,[8],754 ng/mL
same,concentration at 0.5 h,[7],727 ng/mL
same,concentration at 0.5 h,[8],1020 ng/mL
same,concentration at 1 h,[7],499 ng/mL
same,concentration at 1 h,[8],365 ng/mL
same,concentration at 2 h,[7],144 ng/mL
same,concentration at 4 h,[7],18.9 ng/mL
same,concentration at 6 h,"plasma, po, 10 mg/kg, PO 10 mg/kg, 6 hr, read-out: Blood concentration, Mean",7.16 ng/mL
same,concentration at 6 h,"plasma, po, 10 mg/kg, PO 10 mg/kg, 6 hr, read-out: Blood concentration, individual mice",6.37 ng/mL
same,concentration at 8 h,"plasma, po, 10 mg/kg, PO 10 mg/kg, 8 hr, read-out: Blood concentration, Mean",3.43 ng/mL
